What was measured:
[1] = DPPH radical scavenging activity test; type: biochemical; settings: positive control at 0.01%
Protocol: In order to confirm the anti-oxidation efficacy of ceramide and bioactive material-containing nanoparticle capsules, a DPPH radical scavenging activity test was conducted. The DPPH radical scavenging activity was measured by the reducing power of the sample relative to the DPPH radical. A 0.4 mM solution was prepared by dissolving DPPH (1,1-Diphenyl-2-picrylhydrazyl) reagent in ethanol. Then 100 μL of the solution of each sample corresponding to Example 1, Comparative Examples 1, and 2, or positive control BHT (Butylated hydroxyl toluene or 2,6-Di-tert-butyl-p-cresol) was dissolved in ethanol, was added to 100 μL of the 0.4 mM DPPH solution in a 96 well plate and mixed. At this time, ethanol was treated as a negative control, and after mixing, the mixture reacted at 37° C. for 30 minutes. Absorbance was measured at 517 nm using ELISA reader, and the DPPH radical scavenging ability (%) of the sample or BHT as a positive control was calculated using the following formula.
DPPH radical scavenging ability (%)={1−(absorbance of positive control or sample/absorbance of control)}×100

AQP3 = assay: Moisturizing efficacy: AQP3 mRNA expression by qRT-PCR in UVB-irradiated HDFa cells; type: cell-based, Human; settings: UVB 15 mJ/cm^2, positive control at 0.01%
Protocol: In order to confirm the moisturizing efficacy of ceramide and bioactive substance-containing nanoparticle capsule, the effect on AQP3 expression was evaluated. After inoculating Human dermal fibroblast (HDFa) cell lines, they were cultured at 37° C. for 24 hours under 5% CO2 in Fibroblast Basal Medium (Medium 106) containing 100 IU/mL penicillin and 100 μg/mL streptomycin. The medium of each well was removed and replaced with fresh serum-free medium. Each well was subjected to pretreatment for 4 hours by administering the samples corresponding to Example 1 and Comparative Examples 1 and 2 at each concentration. 15 mJ/cm^2 UVB was irradiated to each well plate by a UVB irradiation device (vilber loumet, France). The sample was treated with the diluted serum-free medium, and then further cultured for 24 hours. At this time, a negative control was treated with PBS, and a positive control was treated with Hyaluronic acid at 0.01%. After the cell culture was completed, the cells were lysed using Ribo Ex™ Total RNA Isolation Solution (GeneAll Biotechnology, Korea) and scraper, and then 0.2 mL chloroform (Sigma-Aldrich, USA) was added thereto to perform centrifugation (12,000 rpm, 4° C., 30 minutes). […]

| Molecule | DPPH radical scavenging ability (%) [1] [%] | Relative AQP3 expression (% of control) (AQP3) |
| --- | --- | --- |
| Cc1cc(C(C)(C)C)c(O)c(C(C)(C)C)c1 [BHT, 2,6-Di-tert-butyl-p-cresol] | 62.08 |  |
| Hyaluronic acid |  | 149.52 % of control |

Reference: patent publication US20250114286A1, “METHOD FOR STABILIZING CERAMIDE AND COSMETIC COMPOSITION COMPRISING STABILIZED CERAMIDE” (COSMECCA KOREA Co., Ltd., priority 2023, published 2025)
